Values of other authors, collected in US5905084A, “5-HTIF -agonists effective in treating migraine” (priority 1997, dated 1999).

What was measured:
[1] = test system: neurogenic inflammation; details: Neurology, 43(suppl. 3), S16-S20 (1993)
[2] = test system: exploratory behavior in arthritic animals; details: Larsen and Arnt (1985)

For CNS(=O)(=O)Cc1ccc2[nH]cc(CCN(C)C)c2c1.O=C(O)CCC(=O)O [Compound I, 3-[2-(dimethylamino)ethyl]-N-methyl-1H-indole-5-methanesulfonamide butane-1,4-dioate (1:1)], the neurogenic inflammation blocked [1] is given as “blocked”.

For CN(C)CCCC1(c2ccc(F)cc2)OCc2cc(C#N)ccc21 (centres unmarked) [citalopram], the exploratory behavior [2] is given as “improve exploratory behavior”.
